Laboratory results as given in patent US4665019A, “Method for measuring the plasma levels of an inhibitor of (Na^+ +K^ +” (University of Maryland, priority 1983, dated 1987).

Key:
[1] = test system: ATP generating reaction system; assay: Efficacy of the ATP generating reaction system (rates of NADH oxidation on addition of ADP); assay type: biochemical; settings: at the concentrations shown in FIGS. 1a and 1b; addition of 10-50 μM ADP
[2] = biological target: T1, canine kidney (Na^+ +K^+)ATPase (Canis lupus familiaris, UniProt P50997); assay: (Na+ +K+)ATPase activity assay coupled to NADH oxidation (A340); assay type: biochemical, canine (dog); settings: for time course of inhibition of (Na^+ +K^+)ATPase activity: FIG. 1a/1b, continuous recording of A340, 37° C.
T1 construct: suspending canine kidney (Na^+ +K^+)ATPase; purchased Sigma Chemical; host or cells: canine kidney (tissue-derived membrane preparation)
Experimental: The (Na^+ +K^+)ATPase preparation employed in the assay of this example comprised unsealed membrane sheets as described in Jorgensen, P. L. Biochim. Biophys. Acta 356: 36-52 (1974). Thus, it was not able to distinguish between an external and an internal site of action for the inhibitor.
The ATPase assay solution employed contained 400 μl of an ATPase cocktail and 580 μl of water. The ATPase cocktail was such that the final reaction conditions were (in 1.0 ml) as follows: 20 mM KCl; 100 mM NaCl; 4.5 mM MgSO4; 5 mM EGTA; 3 mM Na2 ATP; 1.2 mM tricyclohexylammonium phosphoenolpyruvate (PEP), 0.25 NADH, 40 mM trimethylaminoethanesulphonic acid (TES)-Tris, pH 7.4; 1.2 units lactate dehydrogenase (LDH); and 1.2 units pyruvate kinase (PK), (ATP, PEP, NADH, LDH and PK were purchased from Boehringer Mannheim Biochemicals; LDG and PK enzymes were obtained as glycerol suspensions.)
The (Na^+ +K^+)ATPase suspension was prepared for assay by suspending canine kidney (Na^+ +K^+)ATPase (obtained from Sigma Chemical having a specific activity of 5-6 μmol per min per mg protein and containing a ouabain-insensitive Mg^2+ -ATPase activity which was less than 2% of the total steady-state ATPase activity) in 500 μM Na4 EDTA, 10 mM (TES)-Tris pH 7.4, at a protein concentration of 150 μg/ml. The resuspended enzyme was incubated at 25° C. for 3 hours and then stored on ice.
The assay was initiated by the rapid addition of 20 μl of ATPase suspension (3 μg protein) to 980 μl of ATPase assay solution in a 1.0 ml cuvette at 37° C. The decrease in ultraviolet light absorbance at 340 nm (A340) due to NADH oxidation (ε=6.22×10^3 1 mol^-1 cm^-1) was continuously recorded using a Beckman Model 25 UV-VIS recording spectrophotometer.
FIG. 1a illustrates ATPase inhibition by ouabain. […] The control contained an appropriate quantity of DMSO.
FIG. 1b illustrates ATPase inhibition by vanadate. […] The control contained in appropriate quantity of water. […]
Percent inhibition was calculated as: [formula]

Compound | effect on the efficacy of the ATP generating reaction system [1] | time course of inhibition of (Na^+ +K^+)ATPase activity [2] | Ki ([2]; from steady-state levels of (Na^+ +K^+)ATPase activity at various vanadate concentrations, 37° C.)
C[C@@H]1O[C@@H](O[C@H]2C[C@@H](O)[C@]3(CO)[C@H]4[C@H](O)C[C@]5(C)[C@@H](C6=CC(=O)OC6)CC[C@]5(O)[C@@H]4CC[C@]3(O)C2)[C@H](O)[C@H](O)[C@H]1O [ouabain] | Neither ouabain nor vanadate, at the concentrations shown in FIGS. 1a and 1b, had a significant effect | no significant effect on the reaction for the first 30 seconds, and thereafter causes a progressive, dose-dependent increase in inhibition | –
[Na+].[Na+].[Na+].[O]=[V]([O-])([O-])[O-] [vanadate, Na3 VO4] | Neither ouabain nor vanadate, at the concentrations shown in FIGS. 1a and 1b, had a significant effect | the effect of vanadate was apparent in the first few seconds of the reaction | 900 nM
